Laboratory results as given in patent US8614201B2 (Janssen Pharmaceutica NV, priority 2009, dated 2013).

Target: Human TRPA1 (Homo sapiens, UniProt O75762)
Experiment: Assay 1: In vitro cellular testing of TRPA1 modulation (CHO-TREx, Fluo-3 calcium fluorescence, AITC agonist)
Type: cell-based
Set-up: expressed in transfected cells; host or cells: CHO-TREx cells (Invitrogen), vector pcDNA4/TO
Conditions: CHO-TREx cells expressing human TRPA1; Fluo-3 fluorescence (FLIPR/Tetra); agonist 15 μM allyl isothiocyanate (AITC); 30 minute antagonist incubation
Protocol: Assay 1: In Vitro Cellular Testing of TRPA1 Modulation
Human TRPA1 (NCBI accession number NM_007332.1) was cloned into pcDNA4/TO. CHO-TREx cells (Invitrogen, Carlsbad, Calif.) were stably transfected with pcDNA4/TO-TRPA1 using lipofection to generate a clonal cell line that expressed human TRPA1 in a tetracycline-inducible manner. Culture medium used was Ham's F-12 supplemented with 10% fetal bovine serum, 2 mM L-glutamine, 5 μg/ml blasticidin and 200 μg/ml zeocin. Cells were seeded in black-walled clear-bottom 96-well plates at a density of 50,000 cells per well and cultured overnight at 37° C. with 5% CO2 in culture medium supplemented with 1 μg/ml tetracycline. On the day of the experiment, cells were washed 3 times with HEPES buffered saline (in mM: NaCl 137, MgCl2 0.5, KCl 2, dextrose 5, CaCl2 2 and HEPES 10; pH 7.4). Cells were then loaded with calcium-sensitive fluorescent dye by incubation in the presence of 4 μM Fluo-3 AM (TefLabs, Austin, Tex.) at room temperature in the dark for 60 minutes. After incubation with dye, cells were washed in assay buffer and, if appropriate, antagonists were added at this time. Following a further 30 minute incubation, cells were assayed using a Fluorometric Imaging Plate Reader (FLIPR™) or a Tetra (both manufactured by Molecular Devices, CA) to simultaneously monitor Fluo-3 fluorescence in all wells (λexcitation=488 nm, λemission=540 nm). Changes in fluorescence were monitored for 3 minutes after the addition of 15 μM allyl isothiocyanate (AITC) as an agonist. Concentration-dependence of receptor blocking was determined by exposing each well of cells in duplicate rows of a 96-well plate to a serial dilution of test compound. The concentration series usually started at 10 μM with a three-fold serial decrement in concentration. The magnitude of the response to agonist challenge was determined by measuring the fluorescence before and 3 minutes after the addition of the agonist. The degree of blocking was determined by comparing the response to that of negative (no added antagonist) and positive (10 μM ruthenium red) control wells. Data were analyzed using a non-linear regression program (Origin; OriginLab, MA) to fit the concentration-response data to a Hill function. Antagonist potencies were determined as the concentration required to produce 50% reduction in the response as compared to the negative and positive controls.

Human TRPA1, sequence (O75762 whole entry): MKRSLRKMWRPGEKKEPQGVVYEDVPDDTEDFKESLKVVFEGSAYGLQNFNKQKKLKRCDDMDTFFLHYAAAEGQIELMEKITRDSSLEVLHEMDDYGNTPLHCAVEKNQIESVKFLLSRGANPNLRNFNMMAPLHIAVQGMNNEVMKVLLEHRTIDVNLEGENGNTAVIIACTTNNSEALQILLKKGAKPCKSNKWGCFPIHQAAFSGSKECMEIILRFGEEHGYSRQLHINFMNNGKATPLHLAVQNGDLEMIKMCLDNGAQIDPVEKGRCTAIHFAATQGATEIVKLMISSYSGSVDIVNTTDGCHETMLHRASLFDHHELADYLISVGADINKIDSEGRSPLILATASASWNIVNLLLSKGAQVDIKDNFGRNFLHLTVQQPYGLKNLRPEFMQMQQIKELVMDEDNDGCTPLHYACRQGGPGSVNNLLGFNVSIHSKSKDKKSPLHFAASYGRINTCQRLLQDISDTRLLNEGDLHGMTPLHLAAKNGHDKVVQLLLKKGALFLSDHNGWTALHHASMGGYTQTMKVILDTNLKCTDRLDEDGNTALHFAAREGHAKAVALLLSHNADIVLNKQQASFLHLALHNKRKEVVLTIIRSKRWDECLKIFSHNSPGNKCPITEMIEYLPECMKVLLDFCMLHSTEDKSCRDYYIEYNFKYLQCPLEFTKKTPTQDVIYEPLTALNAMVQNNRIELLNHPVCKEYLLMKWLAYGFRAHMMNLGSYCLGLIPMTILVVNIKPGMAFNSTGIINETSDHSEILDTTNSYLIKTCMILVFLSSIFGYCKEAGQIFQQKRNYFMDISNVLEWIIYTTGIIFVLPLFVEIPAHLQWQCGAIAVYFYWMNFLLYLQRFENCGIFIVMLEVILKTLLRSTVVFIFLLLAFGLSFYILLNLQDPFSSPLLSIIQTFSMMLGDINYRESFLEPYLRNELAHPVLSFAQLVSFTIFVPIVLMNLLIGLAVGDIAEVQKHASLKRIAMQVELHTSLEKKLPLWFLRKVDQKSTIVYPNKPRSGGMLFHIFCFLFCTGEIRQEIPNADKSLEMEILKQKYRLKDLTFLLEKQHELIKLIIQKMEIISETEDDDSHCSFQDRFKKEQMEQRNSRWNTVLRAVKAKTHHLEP

Row | SMILES | IC50 [nM]
1 | CC(C)N1CCN(c2nc(CNC(=O)[C@@H]3CCCN3S(=O)(=O)c3ccc(F)cc3)cc(-c3ccc(C(F)(F)F)cc3)n2)CC1 [Example 9, 1-(4-Fluoro-benzenesulfonyl)-pyrrolidine-2S-carboxylic acid [2-(4-isopropyl-piperazin-1-yl)-6-(4-trifluoromethyl-phenyl)-pyrimidin-4-ylmethyl]-amide] | 542
2 | CN(C)c1nc(CNC(=O)[C@@H]2CCCN2S(=O)(=O)c2ccc(F)cc2)cc(-c2ccc(C(F)(F)F)cc2)n1 [Example 10, 1-(4-Fluoro-benzenesulfonyl)-pyrrolidine-2S-carboxylic acid [2-dimethylamino-6-(4-trifluoromethyl-phenyl)-pyrimidin-4-ylmethyl]-amide] | 30
3 | O=C(NCc1cc(-c2ccc(C(F)(F)F)cc2)ncn1)[C@@H]1CCCN1S(=O)(=O)c1ccc(F)cc1 [Example 11, 1-(4-Fluoro-benzenesulfonyl)-pyrrolidine-2S-carboxylic acid [6-(4-trifluoromethyl-phenyl)-pyrimidin-4-ylmethyl]-amide] | 65
4 | CN1CCC(CNc2nc(CNC(=O)[C@@H]3CCCN3S(=O)(=O)c3ccc(F)cc3)cc(-c3ccc(C(F)(F)F)cc3)n2)C1 (stereo partly drawn) [Example 12, 1-(4-Fluoro-benzenesulfonyl)-pyrrolidine-2S-carboxylic acid [2-[(1-methyl-pyrrolidin-3-ylmethyl)-amino]-6-(4-trifluoromethyl-phenyl)-pyrimidin-4-ylmethyl]-amide] | 1090
5 | CCC(CC)N1CCN(c2nc(CNC(=O)[C@@H]3CCCN3S(=O)(=O)c3ccc(F)cc3)cc(-c3ccc(C(F)(F)F)cc3)n2)CC1 [Example 13, 1-(4-Fluoro-benzenesulfonyl)-pyrrolidine-2S-carboxylic acid [2-[4-(1-ethyl-propyl)-piperazin-1-yl]-6-(4-trifluoromethyl-phenyl)-pyrimidin-4-ylmethyl]-amide] | 90
6 | CNc1nc(CNC(=O)[C@@H]2CCCN2S(=O)(=O)c2ccc(F)cc2)cc(-c2ccc(C(F)(F)F)cc2)n1 [Example 14, 1-(4-Fluoro-benzenesulfonyl)-pyrrolidine-2S-carboxylic acid [2-methylamino-6-(4-trifluoromethyl-phenyl)-pyrimidin-4-ylmethyl]-amide] | 21
7 | CCN1CCN(c2nc(CNC(=O)[C@@H]3CCCN3S(=O)(=O)c3ccc(F)cc3)cc(-c3ccc(C(F)(F)F)cc3)n2)CC1 [Example 15, 1-(4-Fluoro-benzenesulfonyl)-pyrrolidine-2S-carboxylic acid [2-(4-ethyl-piperain-1-yl)-6-(4-trifluoromethyl-phenyl)-pyrimidin-4-ylmethyl]-amide] | 418
8 | CC(Nc1nc(CNC(=O)[C@@H]2CCCN2S(=O)(=O)c2ccc(F)cc2)cc(-c2ccc(C(F)(F)F)cc2)n1)c1ccccn1 (stereo partly drawn) [Example 16, 1-(4-Fluoro-benzenesulfonyl)-pyrrolidine-2S-carboxylic acid [2-(1-pyridin-2-yl-ethylamino)-6-(4-trifluoromethyl-phenyl)-pyrimidin-4-ylmethyl]-amide] | 34
9 | CN(C)CCN1CCN(c2nc(CNC(=O)[C@@H]3CCCN3S(=O)(=O)c3ccc(F)cc3)cc(-c3ccc(C(F)(F)F)cc3)n2)CC1 [Example 17, 1-(4-Fluoro-benzenesulfonyl)-pyrrolidine-2S-carboxylic acid [2-[4-(2-dimethylamino-ethyl)-piperazin-1-yl]-6-(4-trifluoromethyl-phenyl)-pyrimidin-4-ylmethyl]-amide] | 2080
10 | CN(C)CCN(C)c1nc(CNC(=O)[C@@H]2CCCN2S(=O)(=O)c2ccc(F)cc2)cc(-c2ccc(C(F)(F)F)cc2)n1 [Example 18, 1-(4-Fluoro-benzenesulfonyl)-pyrrolidine-2S-carboxylic acid [2-[(2-dimethylamino-ethyl)-methyl-amino]-6-(4-trifluoromethyl-phenyl)-pyrimidin-4-ylmethyl]-amide] | 1850
11 | O=C(NCc1cc(-c2ccc(C(F)(F)F)cc2)nc(N2CCN(Cc3cccnc3)CC2)n1)[C@@H]1CCCN1S(=O)(=O)c1ccc(F)cc1 [Example 19, 1-(4-Fluoro-benzenesulfonyl)-pyrrolidine-2S-carboxylic acid [2-(4-pyridin-3-ylmethyl-piperazin-1-yl)-6-(4-trifluoromethyl-phenyl)-pyrimidin-4-ylmethyl]-amide] | 16
12 | CN1CCC(CN2CCN(c3nc(CNC(=O)[C@@H]4CCCN4S(=O)(=O)c4ccc(F)cc4)cc(-c4ccc(C(F)(F)F)cc4)n3)CC2)CC1 [Example 20, 1-(4-Fluoro-benzenesulfonyl)-pyrrolidine-2S-carboxylic acid [2-[4-(1-methyl-piperidin-4-ylmethyl)-piperazin-1-yl]-6-(4-trifluoromethyl-phenyl)-pyrimidin-4-ylmethyl]-amide] | 2050
13 | O=C(NCc1cc(-c2ccc(C(F)(F)F)cc2)nc(N2CCN(Cc3ccncc3)CC2)n1)[C@@H]1CCCN1S(=O)(=O)c1ccc(F)cc1 [Example 21, 1-(4-Fluoro-benzenesulfonyl)-pyrrolidine-2S-carboxylic acid [2-(4-pyridin-4-ylmethyl-piperazin-1-yl)-6-(4-trifluoromethyl-phenyl)-pyrimidin-4-ylmethyl]-amide] | 24
14 | O=C(NCc1cc(-c2ccc(C(F)(F)F)cc2)nc(N2CCN(Cc3ccccn3)CC2)n1)[C@@H]1CCCN1S(=O)(=O)c1ccc(F)cc1 [Example 22, 1-(4-Fluoro-benzenesulfonyl)-pyrrolidine-2S-carboxylic acid [2-(4-pyridin-2-ylmethyl-piperazin-1-yl)-6-(4-trifluoromethyl-phenyl)-pyrimidin-4-ylmethyl]-amide] | 130
15 | O=C(NCc1cc(-c2ccc(C(F)(F)F)cc2)nc(N2CCNCC2)n1)[C@@H]1CCCN1S(=O)(=O)c1ccc(F)cc1 [Example 23, 1-(4-Fluoro-benzenesulfonyl)-pyrrolidine-2S-carboxylic acid [2-piperazin-1-yl-6-(4-trifluoromethyl-phenyl)-pyrimidin-4-ylmethyl]-amide] | 4420
16 | CC(C)CN1CCN(c2nc(CNC(=O)[C@@H]3CCCN3S(=O)(=O)c3ccc(Cl)s3)cc(-c3ccc(C(F)(F)F)cc3)n2)CC1 [Example 24, 1-(5-Chloro-thiophene-2-sulfonyl)-pyrrolidine-2S-carboxylic acid [2-(4-isobutyl-piperazin-1-yl)-6-(4-trifluoromethyl-phenyl)-pyrimidin-4-ylmethyl]-amide] | 24
17 | CC1CCCN1c1nc(CNC(=O)[C@@H]2CCCN2S(=O)(=O)c2ccc(F)cc2)cc(-c2ccc(C(F)(F)F)cc2)n1 (stereo partly drawn) [Example 25, 1-(4-Fluoro-benzenesulfonyl)-pyrrolidine-2S-carboxylic acid [2-(2-methyl-pyrrolidin-1-yl)-6-(4-trifluoromethyl-phenyl)-pyrimidin-4-ylmethyl]-amide] | 63
18 | C[C@H]1CCCN1c1nc(CNC(=O)[C@@H]2CCCN2S(=O)(=O)c2ccc(F)cc2)cc(-c2ccc(C(F)(F)F)cc2)n1 [Example 26, 1-(4-Fluoro-benzenesulfonyl)-pyrrolidine-2S-carboxylic acid [2-(2S-methyl-pyrrolidin-1-yl)-6-(4-trifluoromethyl-phenyl)-pyrimidin-4-ylmethyl]-amide] | 13
19 | C[C@@H]1CCCN1c1nc(CNC(=O)[C@@H]2CCCN2S(=O)(=O)c2ccc(F)cc2)cc(-c2ccc(C(F)(F)F)cc2)n1 [Example 27, 1-(4-Fluoro-benzenesulfonyl)-pyrrolidine-2S-carboxylic acid [2-(2R-methyl-pyrrolidin-1-yl)-6-(4-trifluoromethyl-phenyl)-pyrimidin-4-ylmethyl]-amide] | 16
20 | CNc1nc(CNC(=O)[C@@H]2CCCN2S(=O)(=O)c2ccc(Cl)s2)cc(-c2ccc(C(F)(F)F)cc2)n1 [Example 28, 1-(5-Chloro-thiophene-2-sulfonyl)-pyrrolidine-2S-carboxylic acid [2-methylamino-6-(4-trifluoromethyl-phenyl)-pyrimidin-4-ylmethyl]-amide] | 81
21 | CN(C)c1nc(CNC(=O)[C@@H]2CCCN2S(=O)(=O)c2ccc(Cl)s2)cc(-c2ccc(C(F)(F)F)cc2)n1 [Example 29, 1-(5-Chloro-thiophene-2-sulfonyl)-pyrrolidine-2S-carboxylic acid [2-dimethylamino-6-(4-trifluoromethyl-phenyl)-pyrimidin-4-ylmethyl]-amide] | 12
